Here are results for two compounds from patent US10328084B2, “Pyrrolobenzodiazepines and targeted conjugates” (priority 2011, dated 2019).

Assay type in all cases: cell-based
In one experiment the test system is Caki-1. The experiment in a line: in vitro cytotoxic activity, resazurin reduction assay, Caki-1. The settings on record: Homo sapiens, CAKI-1, 48 h, read-out: IC50 in pM following 48 hours treatment, Caki-1. On the procedure: (§1) The in vitro cytotoxic activity of the selected antibody drug conjugate was assessed using a resazurin (Sigma, St. Louis, Mo., USA) reduction assay (reference: Doronina et al., Nature Biotechnology, 2003, 21, 778-784). The antibody drug conjugate was prepared as described above.
(§2) For the 96-hour assay, cells cultured in log-phase growth were seeded for 24 h in 96-well plates containing 150 μL RPMI 1640 supplemented with 20% FBS. Serial dilutions of ADC in cell culture media were prepared at 4× working concentration; 50 μL of each dilution was added to the 96-well plates. Following addition of ADC, the cells were incubated with test articles for 4 days at 37° C. Resazurin was then added to each well to achieve a 50 μM final concentration, and the plates were incubated for an additional 4 hours at 37° C. The plates were then read for the extent of dye reduction on a Fusion HT plate reader (Packard Instruments, Meridien, Conn., USA) with excitation and emission wavelengths of 530 and 590 nm, respectively. The IC50 value, determined in triplicate, is defined here as the concentration that results in a 50% reduction in cell growth relative to untreated controls.
(§3) Referring to the table below, the in vitro cytotoxicity of the ADC using the 96 hour assay is shown. […]

In a further experiment the test system is HEL9217. The experiment in a line: in vitro cytotoxic activity, HEL9217. The settings on record: Homo sapiens, HEL 92.1.7; HEL9217, 48 hours treatment, free PBD dimer; read-out: IC50 in pM following 48 hours treatment, HEL9217. The protocol:
as §1
as §2, with “For the 96-hour assay, cells cultured in log-phase growth were seeded for 24 h in 96-well plates containing 150 μL RPMI 1640 supplemented with 20% FBS.” left out, “Following addition of ADC, the cells were incubated with test articles for 4 days at 37° C.” left out

In a further experiment the test system is 786-O. The experiment in a line: in vitro cytotoxic activity, resazurin reduction assay, 786-O. The note with it: Homo sapiens, 786-0, 48 h, read-out: IC50 in pM following 48 hours treatment, 786-O. The protocol:
as §1, §2, §3
(Alamar Blue is a resazurin reagent that responds to reducing activity.)

The next experiment has as its system HL60. The experiment in a line: in vitro cytotoxic activity, HL60. The note with it: Homo sapiens, HL-60; HL60, 48 hours treatment, free PBD dimer; read-out: IC50 in pM following 48 hours treatment, HL60. On the procedure: as §1
as §2, with “For the 96-hour assay, cells cultured in log-phase growth were seeded for 24 h in 96-well plates containing 150 μL RPMI 1640 supplemented with 20% FBS.” left out, “Following addition of ADC, the cells were incubated with test articles for 4 days at 37° C.” left out

By IC50 is commonly meant the midpoint of a concentration-inhibition curve. `COc1cc2c(cc1OCCCCCOc1cc3c(cc1OC)C(=O)N1C=C(c4ccc(OCCCN(C)C)cc4)C[C@H]1C=N3)N=C[C@@H]1CC(c3ccc(N)cc3)=CN1C2=O` [compound 17, (S)-2-(4-aminophenyl)-8-((5-(((S)-2-(4-(3-(dimethylamino)propoxy)phenyl)-7-methoxy-5-oxo-5,11a-dihydro-1H-benzo[e]pyrrolo[1,2-a][1,4]diazepin-8-yl)oxy)pentyl)oxy)-7-methoxy-1H-benzo[e]pyrrolo[1,2-a][1,4]diazepin-5(11 aH)-one]: the IC50 with Caki-1 amounted to 2 pM; in the experiment with HEL9217, 2 pM; in the experiment on 786-O, 7 pM; with HL60, 3 pM.

Consider `COCCOCCOCCOCCOc1ccc(C2=CN3C(=O)c4cc(OC)c(OCCCCCOc5cc6c(cc5OC)C(=O)N5C=C(c7ccc(N)cc7)C[C@@H]5C=N6)cc4N=C[C@H]3C2)cc1` [compound 23, (R)-2-(4-(2,5,8,11-tetraoxatridecan-13-yloxy)phenyl)-8-((5-(((R)-2-(4-aminophenyl)-7-methoxy-5-oxo-5,11a-dihydro-1H-benzo[e]pyrrolo[1,2-a][1,4]diazepin-8-yl)oxy)pentyl)oxy)-7-methoxy-1H-benzo[e]pyrrolo[1,2-a][1,4]diazepin-5(11aH)-one], for which the half-inhibitory concentration (IC50) in the experiment on Caki-1 was found to be 100 pM; with HEL9217, 100 pM; in the experiment on 786-O, 100 pM; with HL60, 40 pM.
